US10513523B2, “Imidazopyrazines and pyrazolopyrimidines and their use as AMPA receptor modulators” (Janssen Pharmaceutica NV, priority 2015, dated 2019)

test system: endogenous γ8-containing AMPA receptor currents; assay: Whole-cell electrophysiology on acutely-dissociated mouse hippocampal neurons; assay type: cell-based; conditions: 0.1 μM test compound; 10 mM glutamate, 500 ms; held at -60 mV
Protocol: The effects of selected compounds upon endogenous γ 8-containing AMPA receptor currents was evaluated using whole-cell electrophysiology on acutely-dissociated mouse hippocampal neurons. Hippocampus was chosen for this assay, since CACNG8 (the protein encoded by this gene is a type I transmembrane AMPA receptor regulatory protein i.e., TARP) is preferentially enriched in this brain region (Tomita et al. (2003). “Functional studies and distribution define a family of transmembrane AMPA receptor regulatory proteins.” J Cell Biol 161(4): 805-816.2003).
Hippocampi were dissected from C57black6 mice at 4-12 weeks postnatal, following the protocol described by Brewer (Brewer, G. J. (1997). “Isolation and culture of adult rat hippocampal neurons.” Journal of Neuroscience Methods 71(2): 143-155). The following is a brief summary of the procedure. Mice were asphyxiated with CO2 then decapitated. The brain was rapidly removed, then placed into ice-cold HABG medium. The recipe for HABG medium was: HibernateA supplemented with 2% B27 and 0.5 mM Glutamax (all reagents from Life Technologies). Hippocampi were micro-dissected from the brains, then washed with HABG without calcium (Hibernate A minus Calcium, BrainBits; 2% B27, Life Technologies; 0.5 mM glutamax, Life Technologies).
The hippocampi were then transferred to HABG without calcium, supplemented with 2 mg/mL papain (Worthington Biochemical). They were incubated at 30° C. on a roller for 40 min, then gently triturated with a fire-polished glass pipette. The supernatant containing dissociated neurons was collected, then centrifuged for 2 min at 200 g. The cell pellet was collected, and then resuspended in 8 mL of HABG. Live cells were counted, then plated onto 12 mm glass coverslips in HABG (2 mL) in 24-well plates at a density of 50-100 cells per coverslip. These cells were maintained at room temperature until use.
Whole-cell electrophysiology was performed using 1.5 mm diameter glass capillary tubes (World Precision Instruments TW150-4), pulled to a fine tip with a Sutter P-97 micropipette puller. The intracellular buffer was 90 mM KF, 30 mM KCl, 10 mM HEPES, and 5 mM EGTA, pH 7.4, 290mOs. The extracellular buffer was 135 mM NaCl, 4 mM KCl, 2 mM CaCl2, 1 mM MgCl2, 5 mM glucose, 10 mM HEPES, pH 7.4, 300 mOs. The open-tip resistances of the micropipettes using these solutions were 2-4 MΩ. Whole-cell recordings of neuron cell bodies were performed in voltage-clamp mode using an Axon Axopatch 200B amplifier. Whole-cell current was measured holding the interior of the cell at −60 mV, using a 5 kHz lowpass filter. The cells were continuously perfused through 7 mm square glass barrels using a solenoid-controlled solution switching device (Warner Instruments, PF-77B). The peak current in response to a 500 ms exposure to 10 mM glutamate every 5 seconds was measured, before and after exposure to test compound.
For analysis, the mean peak current of 5 traces in the presence of test compound was divided by the mean peak current of 5 traces prior to the addition of test compound. Compounds were tested at concentrations at least ten times higher than their estimated potency in the calcium flux assay, in order to ensure near-saturating occupancy of the receptor.

| SMILES | peak current (% control) [%] |
| --- | --- |
| CC(=O)N1CCN(c2nccn3c(-c4ccc5c(c4)CC(=O)N5)c(-c4ccc(F)cc4)nc23)CC1 [Example 12, 5-[8-(4-Acetylpiperazin-1-yl)-2-(4-fluorophenyl)imidazo[1,2-a]pyrazin-3-yl]indolin-2-one] | 69 |

target: GluA1o-γ8 (GRIA1o-CACNG8 fusion construct; TARP γ8 dependent AMPA receptor) (Homo sapiens (Human), UniProt P42261+Q8WXS5); assay: Calcium flux assay (FLIPR), inhibition of glutamate response of GluA1o-γ8 channel; assay type: cell-based; conditions: HEK293 cells stably expressing GRIA1o-CACNG8 fusion; 15 μM glutamate; pIC50 = negative log of IC50 in molar; read-out: GluR1-γ8 (pIC50) (converted)
Sequence (P42261 other isoform, or with tags, fused parts or gaps): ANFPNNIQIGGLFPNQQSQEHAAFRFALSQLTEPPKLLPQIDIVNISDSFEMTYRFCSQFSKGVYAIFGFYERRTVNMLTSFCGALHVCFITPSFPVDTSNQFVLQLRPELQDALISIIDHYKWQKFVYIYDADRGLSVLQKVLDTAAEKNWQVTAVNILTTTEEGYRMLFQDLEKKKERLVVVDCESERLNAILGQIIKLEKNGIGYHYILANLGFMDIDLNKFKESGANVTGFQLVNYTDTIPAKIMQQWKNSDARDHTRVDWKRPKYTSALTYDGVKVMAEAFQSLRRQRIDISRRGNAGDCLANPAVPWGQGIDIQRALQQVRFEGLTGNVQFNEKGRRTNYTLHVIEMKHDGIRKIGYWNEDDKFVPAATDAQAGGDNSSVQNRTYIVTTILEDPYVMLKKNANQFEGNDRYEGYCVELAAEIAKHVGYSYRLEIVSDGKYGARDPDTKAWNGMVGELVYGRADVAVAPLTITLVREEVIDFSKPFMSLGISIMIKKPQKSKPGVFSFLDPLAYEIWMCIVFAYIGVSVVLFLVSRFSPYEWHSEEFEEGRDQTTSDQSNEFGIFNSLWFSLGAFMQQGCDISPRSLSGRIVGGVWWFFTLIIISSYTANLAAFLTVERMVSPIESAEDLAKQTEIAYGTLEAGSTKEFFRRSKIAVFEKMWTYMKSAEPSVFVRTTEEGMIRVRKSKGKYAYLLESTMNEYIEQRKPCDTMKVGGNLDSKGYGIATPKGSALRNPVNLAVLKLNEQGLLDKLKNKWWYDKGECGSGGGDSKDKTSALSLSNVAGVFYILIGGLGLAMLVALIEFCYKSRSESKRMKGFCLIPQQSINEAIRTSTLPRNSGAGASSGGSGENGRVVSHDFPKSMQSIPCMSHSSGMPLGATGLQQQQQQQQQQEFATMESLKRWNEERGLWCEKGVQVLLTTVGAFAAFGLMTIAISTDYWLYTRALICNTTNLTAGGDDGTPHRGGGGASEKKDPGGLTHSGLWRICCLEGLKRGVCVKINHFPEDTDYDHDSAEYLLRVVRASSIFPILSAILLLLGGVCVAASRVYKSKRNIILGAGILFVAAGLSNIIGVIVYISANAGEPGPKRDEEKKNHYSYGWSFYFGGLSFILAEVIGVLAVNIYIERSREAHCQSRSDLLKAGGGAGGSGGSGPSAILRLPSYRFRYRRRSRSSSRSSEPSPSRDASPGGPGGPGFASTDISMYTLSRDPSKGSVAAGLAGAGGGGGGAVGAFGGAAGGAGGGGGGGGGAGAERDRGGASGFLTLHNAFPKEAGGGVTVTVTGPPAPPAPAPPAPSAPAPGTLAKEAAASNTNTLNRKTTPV
Summary of the method: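 Potency is the midpoint of a four-parameter logistic fit to control-normalized FLIPR calcium responses elicited by 15 μM glutamate. Stable HEK293 cells carried a fused GluA1o-γ8 construct and were preincubated with compound and calcium dye in pH 7.4 HEPES buffer.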

| SMILES | IC50 [nM] |
| --- | --- |
| CC(=O)N1CCN(c2nccn3c(-c4ccc5c(c4)CC(=O)N5)c(-c4ccc(F)cc4)nc23)CC1 [Example 12, 5-[8-(4-Acetylpiperazin-1-yl)-2-(4-fluorophenyl)imidazo[1,2-a]pyrazin-3-yl]indolin-2-one] | 0.398 |
| Nc1nc2cc(-c3c(-c4ccc(F)cc4)nc4c(N5CCOCC5)nccn34)ccc2[nH]1 [Example 121, 5-[2-(4-Fluorophenyl)-8-morpholino-imidazo[1,2-a]pyrazin-3-yl]-1H-benzimidazol-2-amine] | 631 |
| O=C1Cc2cc(-c3c(-c4ccc(F)cc4)nc4c(N5CC[C@H](O)C5)nccn34)ccc2N1 (single isomer, unassigned) [Example 53, (S*)-5-[2-(4-Fluorophenyl)-8-(3-hydroxypyrrolidin-1-yl)imidazo[1,2-a]pyrazin-3-yl]indolin-2-one] | 1.58 |
| COC1CCN(c2nccn3c(-c4ccc5c(c4)CC(=O)N5)c(-c4ccc(F)cc4)nc23)CC1 [Example 72, 5-[2-(4-Fluorophenyl)-8-(4-methoxy-1-piperidyl)imidazo[1,2-a]pyrazin-3-yl]indolin-2-one] | 0.126 |
| O=C1Cc2cc(-c3c(-c4ccccc4)nn4c(N5CCC(O)CC5)nccc34)ccc2N1 [Example 187, 5-[7-(4-Hydroxy-1-piperidyl)-2-phenyl-pyrazolo[1,5-c]pyrimidin-3-yl]indolin-2-one] | 0.158 |
| Oc1ccc(-c2c(-c3ccc(F)cc3)nc3c(N4CCCC4)nccn23)cc1 [Example 126, 4-[2-(4-Fluorophenyl)-8-pyrrolidin-1-yl-imidazo[1,2-a]pyrazin-3-yl]phenol] | 50.1 |
| CS(=O)(=O)C1CN(c2nccn3c(-c4ccc5c(c4)CC(=O)N5)c(-c4ccc(F)cc4)nc23)C1 [Example 62, 5-[2-(4-Fluorophenyl)-8-(3-methylsulfonylazetidin-1-yl)imidazo[1,2-a]pyrazin-3-yl]indolin-2-one] | 10 |
| C[C@H]1COCCN1c1nccn2c(-c3ccc4c(c3)CC(=O)N4)c(-c3ccc(F)cc3)nc12 [Example 43, 5-[2-(4-Fluorophenyl)-8-[(3S)-3-methylmorpholin-4-yl]imidazo[1,2-a]pyrazin-3-yl]indolin-2-one] | 0.631 |
| O=C1Nc2ccc(-c3c(-c4ccc(F)cc4)nc4c(N5CCOCC5)nccn34)cc2C1(F)F [Example 136, 3,3-Difluoro-5-[2-(4-fluorophenyl)-8-morpholino-imidazo[1,2-a]pyrazin-3-yl]indolin-2-one] | 398 |
| O=C1Cc2cc(-c3c(-c4ccc(F)cc4)nn4cnccc34)ccc2N1 [Example 175, 5-[2-(4-Fluorophenyl)pyrazolo[1,5-c]pyrimidin-3-yl]indolin-2-one] | 631 |
| CC(C)(C)c1nn2c(N3CC4(COC4)C3)nccc2c1-c1ccc2c(c1)CC(=O)N2 [Example 199, 5-[2-tert-Butyl-7-(6-oxa-2-azaspiro[3.3]heptan-2-yl)pyrazolo[1,5-c]pyrimidin-3-yl]indolin-2-one] | 316 |
| O=C1Cc2cc(-c3c(-c4ccccc4)nc4c(N5CC6(CC6)C5)nccn34)ccc2N1 [Example 80, 5-[8-(5-Azaspiro[2.3]hexan-5-yl)-2-phenyl-imidazo[1,2-a]pyrazin-3-yl]indolin-2-one] | 0.631 |
| CN(C)c1nccn2c(-c3ccc4c(c3)CC(=O)N4)c(C(=O)c3ccccc3)nc12 [Example 152, 5-[2-Benzoyl-8-(dimethylamino)imidazo[1,2-a]pyrazin-3-yl]indolin-2-one] | 3.98 |
| O=C1Cc2cc(-c3c(-c4ccccc4)nc4c(N5CCC(CF)CC5)nccn34)ccc2N1 [Example 76, 5-[8-[4-(Fluoromethyl)-1-piperidyl]-2-phenyl-imidazo[1,2-a]pyrazin-3-yl]indolin-2-one] | 0.251 |
| O=C1CN(c2nccn3c(-c4ccc5[nH]c(=O)[nH]c5c4)c(-c4ccc(F)cc4)nc23)CCN1 [Example 34, 5-[2-(4-Fluorophenyl)-8-(3-oxopiperazin-1-yl)imidazo[1,2-a]pyrazin-3-yl]-1,3-dihydrobenzimidazol-2-one] | 1.26 |
| O=C1Cc2cc(-c3c(C4CCCC4)nn4c(N5CC(F)C5)nccc34)ccc2N1 [Example 196, 5-[2-Cyclopentyl-7-(3-fluoroazetidin-1-yl)pyrazolo[1,5-c]pyrimidin-3-yl]indolin-2-one] | 158 |
| O=C1Cc2cc(-c3c(-c4ccncc4)nc4c(N5CCC(O)CC5)nccn34)ccc2N1 [Example 215, 5-[8-(4-Hydroxy-1-piperidyl)-2-(4-pyridyl)imidazo[1,2-a]pyrazin-3-yl]indolin-2-one] | 39.8 |
| O=C1CN(c2nccn3c(-c4ccc5c(c4)CC(=O)N5)c(Cc4ccccc4)nc23)CCN1 [Example 38, 5-[2-Benzyl-8-(3-oxopiperazin-1-yl)imidazo[1,2-a]pyrazin-3-yl]indolin-2-one] | 1 |
| Oc1ccc(-c2c(-c3ccc(F)cc3)nc3c(N4CCNCC4)nccn23)cc1 [Example 5, 4-[2-(4-Fluorophenyl)-8-piperazin-1-yl-imidazo[1,2-a]pyrazin-3-yl]phenol] | 1260 |
| O=C1Cc2cc(-c3c(C4CC4)nc4cnc(C(F)(F)F)cn34)ccc2N1 [Example 219, 5-[2-Cyclopropyl-6-(trifluoromethyl)imidazo[1,2-a]pyrazin-3-yl]indolin-2-one] | 6310 |
| O=C1Cc2cc(-c3c(-c4ccc(F)cc4)nc4c(N5CCC(F)CC5)nccn34)ccc2N1 [Example 74, 5-[2-(4-Fluorophenyl)-8-(4-fluoro-1-piperidyl)imidazo[1,2-a]pyrazin-3-yl]indolin-2-one] | 0.0794 |
| O=C1Cc2cc(-c3c(C4CC4)nc4c(N5CCOCC5)nccn34)ccc2N1 [Example 91, 5-(2-Cyclopropyl-8-morpholino-imidazo[1,2-a]pyrazin-3-yl)indolin-2-one] | 501 |
| O=C1Cc2cc(-c3c(-c4ccccc4)nc4c(N5CCC(F)CC5)nccn34)ccc2N1 [Example 75, 5-[8-(4-Fluoro-1-piperidyl)-2-phenyl-imidazo[1,2-a]pyrazin-3-yl]indolin-2-one] | 0.0631 |
| Oc1ccc(-c2c(C3CCCCC3)nc3c(N4CCOCC4)nccn23)cc1 [Example 85, 4-(2-Cyclohexyl-8-morpholino-imidazo[1,2-a]pyrazin-3-yl)phenol] | 200 |
| Cc1cnc(N2CCOCC2)n2nc(C(C)C)c(-c3ccc4[nH]c(=O)sc4c3)c12 [Example 243, 6-(2-Isopropyl-4-methyl-7-morpholino-pyrazolo[1,5-c]pyrimidin-3-yl)-3H-1,3-benzothiazol-2-one] | 3.98 |
| Oc1ccc(-c2c(-c3ccccc3F)nc3c(N4CCOCC4)nccn23)cc1 [Example 84, 4-[2-(2-Fluorophenyl)-8-morpholino-imidazo[1,2-a]pyrazin-3-yl]phenol] | 63.1 |
| O=C1Cc2cc(-c3c(C4CCCC4)nn4c(N5CC(O)C5)nccc34)ccc2N1 [Example 205, 5-[2-Cyclopentyl-7-(3-hydroxyazetidin-1-yl)pyrazolo[1,5-c]pyrimidin-3-yl]indolin-2-one] | 631 |
| N#Cc1ccc(-c2nc3c(N4CCOCC4)nccn3c2-c2ccc3[nH]ncc3c2)cc1 [Example 97, 4-[3-(1H-Indazol-5-yl)-8-morpholino-imidazo[1,2-a]pyrazin-2-yl]benzonitrile] | 3.98 |
| CC(=O)N[C@@H]1CCN(c2nccn3c(-c4ccc5c(c4)CC(=O)N5)c(-c4ccc(F)cc4)nc23)C1 [Example 250, N-[(3R)-1-[2-(4-Fluorophenyl)-3-(2-oxoindolin-5-yl)imidazo[1,2-a]pyrazin-8-yl]pyrrolidin-3-yl]acetamide] | 39.8 |
